For data set [1] the following is noted: cited from earlier work.
Data set [2] is described as follows: Storage stability of the crystal form at 40° C. and 75% RH for six months, XRPD comparison (FIG. 5). It counts as physicochemical. The settings on record: stored at 40° C. and 75% RH for six months. As for the experimental part:
FIG. 5 is an X-ray powder diffraction (XRPD) comparison diagram of crystal form A of inositol nicotinate provided by the present invention stored for half a year at 40° C. and under the condition of 75% of relative humidity.
XRPD analysis: It was detected at room temperature using a Bruker D8 advance type diffractometer from German Brook Instrument Co., Ltd by Cu-Kα rays (λ=1.5418 Å), with a 2θ angle scanning from 3° to 40°, and the scanning speed was 0.2°/second.
The crystal form A of inositol nicotinate obtained in the above examples was stored under conditions of 40° C. and 75% RH for six months.

With `O=C(O[C@H]1[C@H](OC(=O)c2cccnc2)[C@@H](OC(=O)c2cccnc2)[C@H](OC(=O)c2cccnc2)[C@@H](OC(=O)c2cccnc2)[C@H]1OC(=O)c1cccnc1)c1cccnc1` [Inositol nicotinate, cis-1,2,3,5-trans-4,6-cyclohexanehexol niacinate], the solubility in chloroform result in data set [1] (chloroform) is “very slightly soluble”. Moreover, in data set [1] (ethanol and other organic solvents), the solubility in ethanol result is on record as “insoluble”. Besides, the “solubility in dimethyl sulfoxide” value in data set [1] (hot dimethylformamide or dimethyl sulfoxide) is given as “only soluble”. In addition, in data set [1] (hot dimethylformamide), the “solubility in hot dimethylformamide” value is reported as “only soluble”. Further, the solubility in water result in data set [1] (water) is given as “insoluble”.
In the case of `O=C(O[C@H]1[C@H](OC(=O)c2cccnc2)[C@@H](OC(=O)c2cccnc2)[C@H](OC(=O)c2cccnc2)[C@@H](OC(=O)c2cccnc2)[C@H]1OC(=O)c1cccnc1)c1cccnc1` [crystal form A of inositol nicotinate, cis-1,2,3,5-trans-4,6-cyclohexanehexol niacinate], the “crystal form after storage (physical stability, XRPD comparison)” value in data set [2] is reported as “has not changed”.

The values above are taken from patent publication US20180273480A1, “INOSITOL NICOTINATE CRYSTALLINE FORM A AND PREPARATION METHOD THEREFOR” (WEIFANG SHENGYU PHARMA CO., LTD., priority 2015, published 2018).
